Reference: PubChem BioAssay (NCI)
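Five concentrations, 48 hours, 96-well plates. GI50 marks 50% less growth. Definition used: TGI = concentration required for complete inhibition of growth.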

Tests used:
Assay in all cases: NCI anticancer screen, dose series, 48 h
NCI-H460 lung = test system: NCI-H460 lung
SK-MEL-28 melanoma = test system: SK-MEL-28 melanoma
UACC-62 melanoma = test system: UACC-62 melanoma
PC-3 prostate = test system: PC-3 prostate
COLO 205 colon = test system: COLO 205 colon
ACHN renal = test system: ACHN renal
HOP-62 NSCLC = test system: HOP-62 NSCLC
HT29 colon = test system: HT29 colon
RPMI-8226 leukemia = test system: RPMI-8226 leukemia
MCF7 breast = test system: MCF7 breast
EKVX NSCLC = test system: EKVX NSCLC
SK-MEL-2 melanoma = test system: SK-MEL-2 melanoma
KM12 colon = test system: KM12 colon
SK-MEL-5 melanoma = test system: SK-MEL-5 melanoma
HCT-15 colon = test system: HCT-15 colon
SR leukemia = test system: SR leukemia
CAKI-1 renal = test system: CAKI-1 renal
TK-10 renal = test system: TK-10 renal
LOX IMVI melanoma = test system: LOX IMVI melanoma
SW-620 colon = test system: SW-620 colon
SNB-19 CNS = test system: SNB-19 CNS
MDA-MB-231 breast = test system: MDA-MB-231 breast
MDA-MB-435 = test system: MDA-MB-435
MALME-3M melanoma = test system: MALME-3M melanoma
SF-539 CNS = test system: SF-539 CNS
SNB-75 CNS = test system: SNB-75 CNS
K-562 leukemia = test system: K-562 leukemia
SF-268 CNS = test system: SF-268 CNS
HL-60(TB) leukemia = test system: HL-60(TB) leukemia
UACC-257 melanoma = test system: UACC-257 melanoma
SN12C renal = test system: SN12C renal
MOLT-4 leukemia = test system: MOLT-4 leukemia
T-47D breast = test system: T-47D breast
HS 578T breast = test system: HS 578T breast
SF-295 CNS = test system: SF-295 CNS
NCI-H226 lung = test system: NCI-H226 lung
RXF 393 renal = test system: RXF 393 renal
HOP-92 NSCLC = test system: HOP-92 NSCLC
A549 NSCLC = test system: A549 NSCLC
BT-549 breast = test system: BT-549 breast
NCI-H522 lung = test system: NCI-H522 lung
OVCAR-5 ovarian = test system: OVCAR-5 ovarian
IGROV1 ovarian = test system: IGROV1 ovarian
SK-OV-3 ovarian = test system: SK-OV-3 ovarian
OVCAR-4 ovarian = test system: OVCAR-4 ovarian
OVCAR-3 ovarian = test system: OVCAR-3 ovarian
M14 melanoma = test system: M14 melanoma
CCRF-CEM leukemia = test system: CCRF-CEM leukemia
DU-145 prostate = test system: DU-145 prostate
NCI-H23 lung = test system: NCI-H23 lung
NCI/ADR-RES ovarian = test system: NCI/ADR-RES ovarian
OVCAR-8 ovarian = test system: OVCAR-8 ovarian
U251 CNS = test system: U251 CNS
786-0 renal = test system: 786-0 renal
UO-31 renal = test system: UO-31 renal

COC(=O)C1=C(C(=O)OC)SC(=C(Cl)C(=S)Oc2ccccc2N)S1
GI50 (NCI-H460 lung): 13.4 µM
TGI (NCI-H460 lung): > 50 µM
GI50 (SK-MEL-28 melanoma): > 50 µM
TGI (SK-MEL-28 melanoma): > 50 µM
GI50 (UACC-62 melanoma): 16.5 µM
TGI (UACC-62 melanoma): > 50 µM
GI50 (PC-3 prostate): 17.9 µM
TGI (PC-3 prostate): > 50 µM
GI50 (COLO 205 colon): 26.7 µM
TGI (COLO 205 colon): > 50 µM
GI50 (ACHN renal): 15 µM
TGI (ACHN renal): > 50 µM
GI50 (HOP-62 NSCLC): 20.1 µM
TGI (HOP-62 NSCLC): 42.1 µM
GI50 (HT29 colon): 33.7 µM
TGI (HT29 colon): > 50 µM
GI50 (RPMI-8226 leukemia): 17.9 µM
TGI (RPMI-8226 leukemia): > 50 µM
GI50 (MCF7 breast): 5.95 µM
TGI (MCF7 breast): 17.3 µM
GI50 (EKVX NSCLC): 46.5 µM
TGI (EKVX NSCLC): > 50 µM
GI50 (SK-MEL-2 melanoma): 10.2 µM
TGI (SK-MEL-2 melanoma): 26.1 µM
GI50 (KM12 colon): > 50 µM
TGI (KM12 colon): > 50 µM
GI50 (SK-MEL-5 melanoma): 8.43 µM
TGI (SK-MEL-5 melanoma): 17.7 µM
GI50 (HCT-15 colon): 16.4 µM
TGI (HCT-15 colon): > 50 µM
GI50 (SR leukemia): 12.9 µM
TGI (SR leukemia): 35 µM
GI50 (CAKI-1 renal): 13.5 µM
TGI (CAKI-1 renal): 40.7 µM
GI50 (TK-10 renal): 49.5 µM
TGI (TK-10 renal): > 50 µM
GI50 (LOX IMVI melanoma): 9.16 µM
TGI (LOX IMVI melanoma): 22.3 µM
GI50 (SW-620 colon): 24.2 µM
TGI (SW-620 colon): > 50 µM
GI50 (SNB-19 CNS): 25.8 µM
TGI (SNB-19 CNS): > 50 µM
GI50 (MDA-MB-231 breast): 28 µM
TGI (MDA-MB-231 breast): > 50 µM
GI50 (MDA-MB-435): 8.94 µM
TGI (MDA-MB-435): 17 µM
GI50 (MALME-3M melanoma): 18.6 µM
TGI (MALME-3M melanoma): > 50 µM
GI50 (SF-539 CNS): 13.4 µM
TGI (SF-539 CNS): 35.5 µM
GI50 (SNB-75 CNS): 35.1 µM
TGI (SNB-75 CNS): > 50 µM
GI50 (K-562 leukemia): 15.8 µM
TGI (K-562 leukemia): > 50 µM
GI50 (SF-268 CNS): 15.9 µM
TGI (SF-268 CNS): > 50 µM
GI50 (HL-60(TB) leukemia): 14.5 µM
TGI (HL-60(TB) leukemia): > 50 µM
GI50 (UACC-257 melanoma): 9.44 µM
TGI (UACC-257 melanoma): 18.8 µM
GI50 (SN12C renal): 18.2 µM
TGI (SN12C renal): > 50 µM
GI50 (MOLT-4 leukemia): 25 µM
TGI (MOLT-4 leukemia): > 50 µM
GI50 (T-47D breast): > 50 µM
TGI (T-47D breast): > 50 µM
GI50 (HS 578T breast): 15.6 µM
TGI (HS 578T breast): 34.2 µM
GI50 (SF-295 CNS): 13.7 µM
TGI (SF-295 CNS): 41.1 µM
GI50 (NCI-H226 lung): 20.5 µM
TGI (NCI-H226 lung): > 50 µM
GI50 (RXF 393 renal): 8.38 µM
TGI (RXF 393 renal): > 50 µM
GI50 (HOP-92 NSCLC): 37.3 µM
TGI (HOP-92 NSCLC): > 50 µM
GI50 (A549 NSCLC): 18.1 µM
TGI (A549 NSCLC): > 50 µM
GI50 (BT-549 breast): 10.2 µM
TGI (BT-549 breast): 21.6 µM
GI50 (NCI-H522 lung): 10.4 µM
TGI (NCI-H522 lung): 31.3 µM
GI50 (OVCAR-5 ovarian): 37 µM
TGI (OVCAR-5 ovarian): > 50 µM
GI50 (IGROV1 ovarian): 3.79 µM
TGI (IGROV1 ovarian): 14.5 µM
GI50 (SK-OV-3 ovarian): 22.3 µM
TGI (SK-OV-3 ovarian): > 50 µM
GI50 (OVCAR-4 ovarian): > 50 µM
TGI (OVCAR-4 ovarian): > 50 µM
GI50 (OVCAR-3 ovarian): 10.8 µM
TGI (OVCAR-3 ovarian): 36.1 µM
GI50 (M14 melanoma): 10.8 µM
TGI (M14 melanoma): 29.4 µM
GI50 (CCRF-CEM leukemia): > 50 µM
TGI (CCRF-CEM leukemia): > 50 µM
GI50 (DU-145 prostate): 19.8 µM
TGI (DU-145 prostate): > 50 µM
GI50 (NCI-H23 lung): 10.6 µM
TGI (NCI-H23 lung): > 50 µM
GI50 (NCI/ADR-RES ovarian): 13.9 µM
TGI (NCI/ADR-RES ovarian): 37.1 µM
GI50 (OVCAR-8 ovarian): 18.7 µM
TGI (OVCAR-8 ovarian): > 50 µM
GI50 (U251 CNS): 16.2 µM
TGI (U251 CNS): > 50 µM
GI50 (786-0 renal): 12.3 µM
TGI (786-0 renal): > 50 µM
GI50 (UO-31 renal): 10.6 µM
TGI (UO-31 renal): 35.6 µM
